From patent US20250275995A1, “NICOTINAMIDE RIBOSIDE DOSAGE REGIMEN FOR TREATING PARKINSON'S DISEASE” (VESTLANDETS INNOVASJONSSELSKAP AS (VIS), priority 2022, published 2025)

Assays:
Type in all cases: in vivo, human
NAD metabolome [1] = test: NR-SAFE: LC-MS metabolomics of whole blood and urine
Description: Sample analysis was carried out by MS-Omics (Vedbok, Denmark) as follows: Polar metabolite profiling of whole blood and urine was performed using a Thermo Scientific Vanquish LC coupled to Thermo Q Exactive HF MS. An electrospray ionization interface was used as ionization source. Analysis was performed in negative and positive ionization mode. The UPLC was performed using a slightly modified version of the protocol described by Hsiao et al. 2018^14. Peak areas were extracted using Compound Discoverer 3.3 (Thermo Scientific). 14 Hsiao, J. J., Potter, O. G., Chu, T. W. & Yin, H. Improved LC/MS Methods for the Analysis of Metal-Sensitive Analytes Using Medronic Acid as a Mobile Phase Additive. Anal Chem 90, 9457-9464 (2018).
Semi-polar metabolite analysis of whole blood was carried out using a Thermo Scientific Vanquish LC coupled to Orbitrap Exploris 240 MS, Thermo Fisher Scientific. An electrospray ionization interface was used as ionization source. Analysis was performed in positive and negative ionization mode under polarity switching. The UPLC was performed using a slightly modified version of the protocol described by Doneanu et al., 2011^15. Peak areas were extracted using Compound Discoverer 3.3 (Thermo Scientific). 15 Doneanu, C. E. UPLC/MS Monitoring of Water-Soluble Vitamin Bs in Cell Culture Media in Minutes (Application note). https://www.waters.com/waters/library.htm?locale=en US&lid=134636355 (2011).
Identification of compounds for both methods was performed at four levels; Level 1: identification by retention times (compared against in-house authentic standards), accurate mass (with an accepted deviation of 3 ppm), and MS/MS spectra; Level 2a: identification by retention times (compared against in-house authentic standards), accurate mass (with an accepted deviation of 3 ppm). Level 2b: identification by accurate mass (with an accepted deviation of 3 ppm), and MS/MS spectra, Level 3: identification by accurate mass alone (with an accepted deviation of 3 ppm).

NAD metabolome [2] = test: NR-SAFE: NAD and glutathione metabolites in frozen whole blood (NADMed assay)
Description: Analysis was carried out by NADMed (Helsinki, Finland; www.nadmed.com). NAD and glutathione metabolites were extracted from frozen blood in a single step using a proprietary extraction procedure, and each metabolite was measured individually using optimized cyclic enzymatic assays with colorimetric detection.

Parkinson's Disease (PD) = test: NR-SAFE: MDS-UPDRS and Hoehn and Yahr scores
Description: At screening for trial entry, candidates underwent physical and neurological examination. Enrolled participants were assessed by physical visits by a movement disorder specialist at baseline (visit 1, V1), day 7 (V4), day 14 (V5), day 21 (V6) and day 28 (V7). At baseline and day 28 participants underwent additional assessment with the Movement Disorder Society Unified Parkinson's disease Rating Scale section I-IV (MDS-UPDRS). At all physical visits an electrocardiogram (ECG), vital parameters (blood pressure, pulse, weight, height) and blood samples were obtained. Additional blood samples were taken on day 3 (V2) and day 5 (V3) to assess safety. The participants were interviewed by telephone consultation by a study nurse on day 3 and day 35 to screen for additional adverse events. Participants were instructed to take their anti-Parkinson drugs as they normally would and no changes were made to anti-Parkinson drug treatment during the trial. Adverse events (AEs) were recorded by the investigating physician. These were then classified by severity according to the Common Terminology Criteria for Adverse Events v5.0 (CTCAE)^13 as either mild (1), moderate (2), severe (3), life-threatening (4) or death (5). The AE relation to the study drug was scored as unrelated (1), unlikely (2), possible (3), probable (4) or definitely (5). 13 Freites-Martinez, A., Santana, N., Arias-Santiago, S. & Viera, A. Using the Common Terminology Criteria for Adverse Events (CTCAE—Version 5.0) to Evaluate the Severity of Adverse Events of Anticancer Therapies. Actas Dermosifiliogr (Engl Ed) 112, 90-92 (2021).

[3] = LC-MS, V1 to V7, 3000 mg NR daily
[4] = LC-MS, V1 to V7, NR group, 3000 mg NR daily
[5] = NADMed assay, V1 to V7, 3000 mg NR daily
[6] = V1 (baseline), NR 3000 mg daily group, ±sd
[7] = V7 (day 28), NR 3000 mg daily, ±sd

NC(=O)c1ccc[n+]([C@@H]2O[C@H](CO)[C@@H](O)[C@H]2O)c1 [NR, nicotinamide riboside]
urine NAD-related metabolites (NAR, Nam, Me-Nam, Me-2-PY, Nam N-oxide) (NAD metabolome [1]; [3]): increase in several NAD-related metabolites | whole blood ADP-ribose (ADPR) (NAD metabolome [1]; [3]): increase in NAD-derived signaling molecules such as ADP-ribose (ADPR) | whole blood ATP, GTP, ADP, AMP, adenosine and GDP (NAD metabolome [1]; [3]): unchanged | whole blood Nam, Nam N-oxide, Me-Nam, Me-2-PY (NAD metabolome [1]; [3]): increased as well | whole blood nicotinamide mononucleotide (NMN) (NAD metabolome [1]; [3]): elevated levels | whole blood nicotinic acid adenine dinucleotide (NAAD) (NAD metabolome [1]; [3]): elevated | NR itself in urine (NAD metabolome [1]; [4]): did not change significantly | NR itself in whole blood (NAD metabolome [1]; [4]): did not increase | whole blood HCy, SAM, SAH, SAM/SAH ratio, methionine (NAD metabolome [1]; LC-MS, V1 vs V7, 3000 mg NR daily): did not detect a change | depletion of the methyl-group pool (NAD metabolome [1]; NR 3000 mg for 4 weeks): does not cause depletion of the methyl-group pool | whole blood NAD^+ and NADP^+ levels (NAD metabolome [1]; targeted LC-MS, V1 to V7, 3000 mg NR daily): significant increase in whole blood NAD^+ and NADP^+ levels | whole blood homocysteine (HCy) (NAD metabolome [1]; targeted metabolomics, V1 vs V7, 3000 mg NR daily): did not show any HCy elevation | whole blood methionine levels (NAD metabolome [1]; untargeted metabolomics, 3000 mg NR daily): unaffected | whole blood betaine (NAD metabolome [1]; untargeted metabolomics, NR group, 3000 mg NR daily): decreased slightly | increase in whole blood NAD^+ levels (NAD metabolome [2]; 3000 mg NR daily, 4 weeks): ~3.7 fold | increase in whole blood NAD^+ levels, range (NAD metabolome [2]; 3000 mg NR daily, 4 weeks, range across individuals): 1.8-5.8 fold | increase in blood NAD^+ levels (maximum) (NAD metabolome [2]; 3000 mg NR daily, 4 weeks, summary statement): up to 5 fold | whole blood GSH and GSSG (NAD metabolome [2]; [5]): remained unchanged | whole blood NADH level (NAD metabolome [2]; [5]): marked increase | whole blood NADP^+ and total NADP levels (NAD metabolome [2]; [5]): increase in NADP^+ and total NADP levels | whole blood NADP^+/NADPH ratio (NAD metabolome [2]; [5]): trend towards increased NADP^+/NADPH ratio | whole blood NAD^+ level (NAD metabolome [2]; [5]): marked increase | whole blood NAD^+/NADH ratio (NAD metabolome [2]; [5]): overall elevated NAD^+/NADH ratio | clinical symptoms of PD, measured by MDS-UPDRS (Parkinson's Disease (PD); NR 3000 mg daily, 4 weeks): significantly improved clinical symptoms of PD | Hoehn & Yahr score (Parkinson's Disease (PD); [6]): 2 ± 0.66 | MDS-UPDRS Part I (Parkinson's Disease (PD); [6]): 7.8 ± 5.37 | MDS-UPDRS Part II (Parkinson's Disease (PD); [6]): 9.4 ± 6.25 | MDS-UPDRS Part III (Parkinson's Disease (PD); [6]): 29.7±12.85 | MDS-UPDRS Part IV (Parkinson's Disease (PD); [6]): 4.1 ± 4.88 | Total MDS-UPDRS (Parkinson's Disease (PD); [6]): 51±21.28 | total MDS-UPDRS, subgroup (Parkinson's Disease (PD); V1, subgroup of 8 participants with similar intervals since last levodopa dose, NR 3000 mg daily): 46.62±17.76 | Hoehn & Yahr score (Parkinson's Disease (PD); [7]): 2.1 ± 0.31 | MDS-UPDRS Part I (Parkinson's Disease (PD); [7]): 5.6 ± 5.01 | MDS-UPDRS Part II (Parkinson's Disease (PD); [7]): 8.8 ± 7.58 | MDS-UPDRS Part III (Parkinson's Disease (PD); [7]): 22.7±7.55 | MDS-UPDRS Part IV (Parkinson's Disease (PD); [7]): 3.2 ± 3.15 | Total MDS-UPDRS (Parkinson's Disease (PD); [7]): 40.3±17.1 | total MDS-UPDRS, subgroup (Parkinson's Disease (PD); V7, subgroup of 8 participants with similar intervals since last levodopa dose, NR 3000 mg daily): 35.75±11.74 | total MDS-UPDRS mean change, subgroup (Parkinson's Disease (PD); V7−V1, subgroup of 8 participants with similar intervals since last levodopa dose, NR 3000 mg daily): −10.87±11.15 | Hoehn & Yahr score, Δ (Parkinson's Disease (PD); Δ=V7−V1, NR 3000 mg daily, ±sd): 0.1 ± 0.56 | MDS-UPDRS Part I, Δ (Parkinson's Disease (PD); Δ=V7−V1, NR 3000 mg daily, ±sd): −2.2 ± 3.52 | MDS-UPDRS Part II, Δ (Parkinson's Disease (PD); Δ=V7−V1, NR 3000 mg daily, ±sd): −0.6 ± 2.36 | MDS-UPDRS Part III, Δ (Parkinson's Disease (PD); Δ=V7−V1, NR 3000 mg daily, ±sd): −7 ± 7.98 | MDS-UPDRS Part IV, Δ (Parkinson's Disease (PD); Δ=V7−V1, NR 3000 mg daily, ±sd): −0.9 ± 2.60 | Total MDS-UPDRS, Δ (mean change) (Parkinson's Disease (PD); Δ=V7−V1, NR 3000 mg daily, ±sd): −10.7±9.94
